Tests used:
[1] = tested on: neomycin sensing riboswitch (NSR), wild-type (U14) (RNA, riboswitch) GGCUGCUUGUCCUUUAAUGGUCCAGUC; assay: 1H NMR imino spectra; conditions: no added monovalent ions; complex also in K+ buffers; 50 mM BisTris pH 6.3, 10 °C; ligand in slight excess; U10, U21 signals remain at 40 °C
[2] = tested on: NSR U14C mutant (C14+) (RNA, riboswitch, C14 protonated at N3 in the folded complex (transcribed as ordinary C)) GGCUGCUUGUCCUCUAAUGGUCCAGUC; assay: 1H NMR imino spectra; conditions: no added monovalent ions; complex also in K+ buffers; 50 mM BisTris pH 6.3, 10 °C; ligand in slight excess

Compound: NC[C@H]1O[C@H](O[C@H]2[C@H](O[C@@H]3O[C@H](CO)[C@@H](O)[C@H]3O)[C@@H](O)[C@H](N)C[C@@H]2N)[C@H](N)[C@@H](O)[C@@H]1O
- binding [1]: yes
- binding [2]: yes

— PMC6061696 (2018)
